Measured values taken from PubChem BioAssay AID248 (DTP/NCI, 2004).
Values joined by “and” are separate entries in the source; they are usually repeats but may differ in a detail not shown here. Equal entries are not always repeated. Inconclusive results and toxic doses are left out.

Test system: L1210 leukemia ip in BDF1 mice, survival T/C
Experiment: NCI In Vivo Anticancer Drug Screen. Data for tumor model L1210 Leukemia (intraperitoneal) in B6D2F1 (BDF1) mice
Settings: endpoint: mean survival time, higher = longer survival
How it was run: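 Transplanted-tumor mice were given test agent; controls received vehicle only. Survival readings from the two groups were divided (treated over control).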

[1] = dose: 100.0 mg/kg/injection, schedule: Q04DX002 (ip), vehicle: Klucel (hydroxypropylcellulose) (HPC)
[2] = dose: 200.0 mg/kg/injection, schedule: Q04DX002 (ip), vehicle: Klucel (hydroxypropylcellulose) (HPC)
[3] = dose: 400.0 mg/kg/injection, schedule: Q04DX002 (ip), vehicle: Klucel (hydroxypropylcellulose) (HPC)
[4] = dose: 100.0 mg/kg/injection, schedule: Q04DX003 (ip), vehicle: saline with Tween-80
[5] = dose: 200.0 mg/kg/injection, schedule: Q04DX003 (ip), vehicle: saline with Tween-80
[6] = dose: 100.0 mg/kg/injection, schedule: Q04DX003 (ip), vehicle: other
[7] = dose: 25.0 mg/kg/injection, schedule: Q04DX002 (ip), vehicle: saline
[8] = dose: 50.0 mg/kg/injection, schedule: Q04DX002 (ip), vehicle: saline
[9] = dose: 100.0 mg/kg/injection, schedule: Q04DX002 (ip), vehicle: saline
[10] = dose: 12.5 mg/kg/injection, schedule: Q01DX009 (ip), vehicle: saline with Tween-80
[11] = dose: 100.0 mg/kg/injection, schedule: Q01DX001 (ip), vehicle: saline
[12] = dose: 200.0 mg/kg/injection, schedule: Q01DX001 (ip), vehicle: saline
[13] = dose: 100.0 mg/kg/injection, schedule: Q01DX009 (ip), vehicle: saline with Tween-80
[14] = dose: 200.0 mg/kg/injection, schedule: Q01DX009 (ip), vehicle: saline with Tween-80
[15] = dose: 400.0 mg/kg/injection, schedule: Q01DX001 (ip), vehicle: saline
[16] = dose: 400.0 mg/kg/injection, schedule: Q01DX009 (ip), vehicle: saline with Tween-80
[17] = dose: 400.0 mg/kg/injection, schedule: Q04DX003 (ip), vehicle: saline with Tween-80
[18] = dose: 50.0 mg/kg/injection, schedule: Q01DX009 (ip), vehicle: saline
[19] = dose: 50.0 mg/kg/injection, schedule: Q04DX003 (ip), vehicle: saline
[20] = dose: 100.0 mg/kg/injection, schedule: Q01DX009 (ip), vehicle: saline
[21] = dose: 100.0 mg/kg/injection, schedule: Q04DX003 (ip), vehicle: saline
[22] = dose: 200.0 mg/kg/injection, schedule: Q01DX009 (ip), vehicle: saline
[23] = dose: 200.0 mg/kg/injection, schedule: Q04DX003 (ip), vehicle: saline
[24] = dose: 400.0 mg/kg/injection, schedule: Q04DX003 (ip), vehicle: saline
[25] = dose: 10.0 mg/kg/injection, schedule: Q01DX001 (ip), vehicle: saline
[26] = dose: 20.0 mg/kg/injection, schedule: Q01DX001 (ip), vehicle: saline
[27] = dose: 40.0 mg/kg/injection, schedule: Q01DX001 (ip), vehicle: saline

Compound: CSC(NC(=O)c1ccc([N+](=O)[O-])cc1)C(N)=O (stereo not given)
- T/C (dose: 50.0 mg/kg/injection, schedule: Q04DX002 (ip), vehicle: Klucel (hydroxypropylcellulose) (HPC)): 102 % of control
- T/C [1]: 106 % of control
- T/C [2]: 109 % of control and 113 % of control
- T/C [3]: 109 % of control

Compound: NCCSC(C[N+](=O)[O-])c1ccc2c(c1)OCO2 (stereo not given)
- T/C [4]: 93 % of control
- T/C [5]: 98 % of control

Compound: CCCNC(=S)NC
- T/C (dose: 100.0 mg/kg/injection, schedule: Q04DX003 (ip), vehicle: Klucel (hydroxypropylcellulose) (HPC)): 90 % of control
- T/C (dose: 200.0 mg/kg/injection, schedule: Q04DX003 (ip), vehicle: Klucel (hydroxypropylcellulose) (HPC)): 95 % of control
- T/C (dose: 400.0 mg/kg/injection, schedule: Q04DX003 (ip), vehicle: Klucel (hydroxypropylcellulose) (HPC)): 109 % of control

Compound: O=[N+]([O-])c1ccc(N/N=C(\c2ccccc2)c2ccc(O)cc2O)c([N+](=O)[O-])c1
- T/C (dose: 100.0 mg/kg/injection, schedule: Q01DX001 (ip), vehicle: other): 91 % of control
- T/C [6]: 95 % of control
- T/C (dose: 200.0 mg/kg/injection, schedule: Q01DX001 (ip), vehicle: other): 91 % of control
- T/C (dose: 200.0 mg/kg/injection, schedule: Q04DX003 (ip), vehicle: other): 96 % of control
- T/C (dose: 400.0 mg/kg/injection, schedule: Q01DX001 (ip), vehicle: other): 95 % of control
- T/C (dose: 400.0 mg/kg/injection, schedule: Q04DX003 (ip), vehicle: other): 96 % of control

Compound: O=C(OCCOc1ccc(Cl)cc1Cl)c1cc(I)cc(I)c1I
- T/C [1]: 111 % of control
- T/C [2]: 101 % of control
- T/C [3]: 104 % of control

Compound: O=S(=O)(O)SCC1=NCCN1
- T/C [7]: 103 % of control
- T/C [8]: 93 % of control
- T/C [9]: 98 % of control

Compound: CCOC(=O)CS(=O)c1c([N+](=O)[O-])ncn1C (stereo not given)
- T/C (dose: 6.25 mg/kg/injection, schedule: Q01DX009 (ip), vehicle: saline with Tween-80): 97 % of control
- T/C [10]: 94 % of control
- T/C (dose: 25.0 mg/kg/injection, schedule: Q01DX009 (ip), vehicle: saline with Tween-80): 103 % of control

Compound: CCN(CC)CCN=Cc1ccccc1OC
- T/C [11]: 98 % of control
- T/C [12]: 101 % of control

Compound: CN(C)C=Nc1ccc([N+](=O)[O-])cc1
- T/C (dose: 50.0 mg/kg/injection, schedule: Q01DX001 (ip), vehicle: saline): 89 % of control
- T/C [11]: 89 % of control
- T/C [13]: 96 % of control
- T/C [12]: 96 % of control
- T/C [14]: 89 % of control
- T/C [15]: 91 % of control
- T/C [16]: 90 % of control

Compound: O=[N+]([O-])c1ccc(N=NNc2ccc(N=Nc3ccccc3)cc2)cc1
- T/C (dose: 25.0 mg/kg/injection, schedule: Q01DX009 (ip), vehicle: Klucel (hydroxypropylcellulose) (HPC)): 91 % of control
- T/C (dose: 25.0 mg/kg/injection, schedule: Q04DX003 (ip), vehicle: other): 89 % of control
- T/C (dose: 50.0 mg/kg/injection, schedule: Q01DX009 (ip), vehicle: Klucel (hydroxypropylcellulose) (HPC)): 102 % of control
- T/C (dose: 50.0 mg/kg/injection, schedule: Q04DX003 (ip), vehicle: other): 95 % of control
- T/C [6]: 92 % of control

Compound: COc1ccc(C(=O)P(=O)(OC)OC)cc1
- T/C [4]: 106 % of control
- T/C [5]: 104 % of control
- T/C [17]: 98 % of control

Compound: O=C(CCc1ccccc1)NC(=S)Nc1cccc([N+](=O)[O-])c1
- T/C [10]: 96 % of control and 98 % of control
- T/C (dose: 50.0 mg/kg/injection, schedule: Q04DX003 (ip), vehicle: saline with Tween-80): 96 % of control
- T/C (dose: 100.0 mg/kg/injection, schedule: Q01DX001 (ip), vehicle: saline with Tween-80): 93 % of control
- T/C (dose: 100.0 mg/kg/injection, schedule: Q04DX002 (ip), vehicle: alcohol): 104 % of control
- T/C [4]: 91 % of control
- T/C (dose: 200.0 mg/kg/injection, schedule: Q01DX001 (ip), vehicle: saline with Tween-80): 104 % of control
- T/C (dose: 200.0 mg/kg/injection, schedule: Q04DX002 (ip), vehicle: alcohol): 93 % of control and 100 % of control
- T/C [5]: 86 % of control
- T/C (dose: 400.0 mg/kg/injection, schedule: Q04DX002 (ip), vehicle: alcohol): 96 % of control

Compound: CCNC(=O)CCP(=O)(CCC(=O)NCC)CCC(=O)NCC
- T/C [18]: 94 % of control
- T/C [19]: 101 % of control
- T/C [20]: 90 % of control
- T/C [21]: 101 % of control
- T/C [22]: 90 % of control
- T/C [23]: 101 % of control
- T/C [24]: 101 % of control

Compound: Cc1noc(NS(=O)(=O)c2ccc(N=Nc3ccc(N)nc3N)cc2)c1C
- T/C [11]: 105 % of control
- T/C [12]: 98 % of control
- T/C [15]: 100 % of control

Compound: CC(C)C1CCC(NC(=O)N(CCF)N=O)CC1 (stereo not given)
- T/C (dose: 9.5 mg/kg/injection, schedule: Q01DX001 (ip), vehicle: other): 108 % of control
- T/C (dose: 23.0 mg/kg/injection, schedule: Q01DX001 (ip), vehicle: other): 165 % of control
- T/C (dose: 30.0 mg/kg/injection, schedule: Q01DX001 (ip), vehicle: other): 187 % of control
- T/C (dose: 38.0 mg/kg/injection, schedule: Q01DX001 (ip), vehicle: other): 209 % of control
- T/C (dose: 46.0 mg/kg/injection, schedule: Q01DX001 (ip), vehicle: other): 212 % of control
- T/C (dose: 62.0 mg/kg/injection, schedule: Q01DX001 (ip), vehicle: other): 312 % of control

Compound: CC(C)(NC(=O)NCCCl)C(=O)O
- T/C (dose: 100.0 mg/kg/injection, schedule: Q01DX001 (ip), vehicle: Klucel (hydroxypropylcellulose) (HPC)): 105 % of control
- T/C (dose: 200.0 mg/kg/injection, schedule: Q01DX001 (ip), vehicle: Klucel (hydroxypropylcellulose) (HPC)): 96 % of control
- T/C (dose: 400.0 mg/kg/injection, schedule: Q01DX001 (ip), vehicle: Klucel (hydroxypropylcellulose) (HPC)): 94 % of control

Compound: CCOP(=O)(CCP(=O)(CCP(=O)(OCC)OCC)CCP(=O)(OCC)OCC)OCC
- T/C [18]: 94 % of control
- T/C [19]: 103 % of control
- T/C [20]: 94 % of control
- T/C [21]: 103 % of control
- T/C [22]: 98 % of control
- T/C [23]: 101 % of control
- T/C [24]: 98 % of control

Compound: CCCCCCCCCCCCCCC1=NCCN1
- T/C (dose: 5.0 mg/kg/injection, schedule: Q01DX009 (ip), vehicle: saline): 98 % of control
- T/C [25]: 94 % of control
- T/C (dose: 10.0 mg/kg/injection, schedule: Q01DX009 (ip), vehicle: saline): 104 % of control
- T/C (dose: 10.0 mg/kg/injection, schedule: Q04DX003 (ip), vehicle: saline): 92 % of control
- T/C [26]: 103 % of control
- T/C (dose: 20.0 mg/kg/injection, schedule: Q01DX009 (ip), vehicle: saline): 106 % of control
- T/C (dose: 20.0 mg/kg/injection, schedule: Q04DX003 (ip), vehicle: saline): 101 % of control
- T/C [27]: 98 % of control
- T/C (dose: 40.0 mg/kg/injection, schedule: Q04DX003 (ip), vehicle: saline): 92 % of control

Compound: O=C1OC(=O)C(Br)=C1Br
- T/C [7]: 101 % of control
- T/C [18]: 94 % of control
- T/C [8]: 97 % of control
- T/C [20]: 91 % of control
- T/C [9]: 97 % of control
- T/C [21]: 95 % of control
- T/C [22]: 107 % of control
- T/C (dose: 200.0 mg/kg/injection, schedule: Q04DX002 (ip), vehicle: saline): 93 % of control and 103 % of control
- T/C [23]: 98 % of control

Compound: CC(=O)Nc1cccc2c1C(=O)OC2=O
- T/C [13]: 105 % of control
- T/C [4]: 102 % of control
- T/C [14]: 89 % of control
- T/C [5]: 99 % of control
- T/C [16]: 93 % of control
- T/C [17]: 94 % of control

Compound: CNC(=O)Nc1ncnn1Cc1ccccc1
- T/C [20]: 92 % of control
- T/C [22]: 97 % of control

Compound: CC1CN(Cl)C(=O)N(Cl)C1=O (stereo not given)
- T/C [25]: 96 % of control
- T/C [26]: 98 % of control
- T/C [27]: 92 % of control
